ChEMBL document CHEMBL1221210, “A Cdc7 kinase inhibitor restricts initiation of DNA replication and has antitumor activity” (Nat Chem Biol, 2008)
Activity calls are given as the source filed them. The rule behind the calls is not given here.

Key:
[1] = tested on: PC-3; assay: Induction of cell cycle arrest in human PC3 cells expressing p53 gene assessed as accumulation at subG1 phase at 100 uM after 24hrs by FACS analysis; type: functional
[2] = tested on: NHDF; assay: Induction of cell cycle arrest in NHDF expressing p53 gene assessed as accumulation at subG1 phase at 100 uM after 24hrs by FACS analysis; type: cell-based; details: human
[3] = tested on: SF-268; assay: Antiproliferative activity against p53 deficient human SF268 cells after 72 hrs; type: functional, cell-based; details: SF-268, 72 h
[4] = tested on: K562; assay: Antiproliferative activity against p53 deficient human K562 cells after 72 hrs; type: functional, cell-based; details: K562, 72 h
[5] = tested on: HeLa; assay: Antiproliferative activity against p53 deficient human HeLa cells after 72 hrs; type: functional, cell-based
[6] = tested on: SW480; assay: Antiproliferative activity against p53 deficient human SW480 cells after 72 hrs by proliferative assay; type: functional, cell-based; details: SW480, 72 h
[7] = tested on: COLO 205; assay: Antiproliferative activity against p53 deficient human COLO205 cells after 72 hrs; type: functional, cell-based; details: COLO 205, 72 h
[8] = Antiproliferative activity against p53 deficient human HCT116/E6 cells after 72 hrs by proliferative assay; type: functional, cell-based; details: HCT116-E6, 72 h
[9] = tested on: Jurkat; assay: Antiproliferative activity against p53 deficient human Jurkat cells after 72 hrs by proliferative assay; type: functional, cell-based
[10] = Antiproliferative activity against p53 deficient human A2780/E6 cells after 72 hrs by proliferative assay; type: functional, cell-based; details: A2780/E6, 72 h
[11] = tested on: OVCAR-8; assay: Antiproliferative activity against p53 deficient human OVCAR8 cells after 72 hrs by proliferative assay; type: functional, cell-based; details: OVCAR-8, 72 h
[12] = tested on: MCF7; assay: Antiproliferative activity against human MCF7 cells expressing p53 gene after 72 hrs by proliferative assay; type: functional, cell-based; details: MCF7, 72 h
[13] = tested on: HCT-116; assay: Antiproliferative activity against human HCT116 cells expressing p53 gene after 72 hrs by proliferative assay; type: functional, cell-based; details: HCT-116, 72 h
[14] = tested on: HCT-15; assay: Antiproliferative activity against human HCT15 cells expressing p53 gene after 72 hrs by proliferative assay; type: functional, cell-based; details: HCT-15, 72 h
[15] = tested on: SF-539; assay: Antiproliferative activity against human SF539 cells expressing p53 gene after 72 hrs by proliferative assay; type: functional, cell-based; details: SF-539, 72 h
[16] = tested on: U2OS; assay: Antiproliferative activity against human U2OS cells expressing p53 gene after 72 hrs by proliferative assay; type: functional, cell-based
[17] = tested on: A2780; assay: Antiproliferative activity against human A2780 cells expressing p53 gene after 72 hrs by proliferative assay; type: functional, cell-based; details: A2780, 72 h
[18] = tested on: PC-3; assay: Antiproliferative activity against human PC3 cells expressing p53 gene after 72 hrs by proliferative assay; type: functional, cell-based; details: PC-3, 72 h
[19] = tested on: NHDF; assay: Antiproliferative activity against NHDF expressing p53 gene after 72 hrs by proliferative assay; type: cell-based; details: Homo sapiens
[20] = tested on: SF-268; assay: Induction of cell cycle arrest in p53 deficient human SF268 cells assessed as accumulation at subG1 phase at 100 uM after 24 hrs FACS analysis; type: functional
[21] = tested on: K562; assay: Induction of cell cycle arrest in p53 deficient human K562 cells assessed as accumulation at subG1 phase at 100 uM after 24hrs by FACS analysis; type: functional
[22] = tested on: HeLa; assay: Induction of cell cycle arrest in p53 deficient human HeLa cells assessed as assessed as accumulation at subG1 phase at 100 uM after 24hrs by FACS analysis; type: functional
[23] = tested on: SW480; assay: Induction of cell cycle arrest in p53 deficient human SW480 cells assessed as accumulation at subG1 phase at 100 uM after 24hrs by FACS analysis; type: functional
[24] = tested on: COLO 205; assay: Induction of cell cycle arrest in p53 deficient human COLO205 cells assessed as accumulation at subG1 phase at 100 uM after 24hrs by FACS analysis; type: functional
[25] = Induction of cell cycle arrest in p53 deficient human HCT116-E6 cells assessed as accumulation at subG1 phase at 100 uM after 24hrs by FACS analysis; type: functional
[26] = tested on: Jurkat; assay: Induction of cell cycle arrest in p53 deficient human Jurkat cells assessed as accumulation at subG1 phase at 100 uM after 24hrs by FACS analysis; type: functional
[27] = Induction of cell cycle arrest in p53 deficient human A2780/E6 cells as accumulation at subG1 phase at 100 uM after 24hrs by FACS analysis; type: functional
[28] = tested on: OVCAR-8; assay: Induction of cell cycle arrest in p53 deficient human OVCAR8 cells assessed as accumulation at subG1 phase at 100 uM after 24hrs by FACS analysis; type: functional
[29] = tested on: MCF7; assay: Induction of cell cycle arrest in human MCF7 cells expressing p53 gene assessed as accumulation at subG1 phase at 100 uM after 24hrs by FACS analysis; type: functional
[30] = tested on: HCT-116; assay: Induction of cell cycle arrest in human HCT116 cells expressing p53 gene assessed as accumulation at subG1 phase at 100 uM after 24hrs by FACS analysis; type: functional
[31] = tested on: HCT-15; assay: Induction of cell cycle arrest in human HCT15 cells expressing p53 gene assessed as accumulation at subG1 phase at 100 uM after 24hrs by FACS analysis; type: functional
[32] = tested on: SF-539; assay: Induction of cell cycle arrest in human SF539 cells expressing p53 gene assessed as accumulation at subG1 phase at 100 uM after 24hrs by FACS analysis; type: functional
[33] = tested on: U2OS; assay: Induction of cell cycle arrest in human U2OS cells expressing p53 gene assessed as accumulation at subG1 phase at 100 uM after 24hrs by FACS analysis; type: functional
[34] = tested on: A2780; assay: Induction of cell cycle arrest in human A2780 cells expressing p53 gene assessed as accumulation at subG1 phase at 100 uM after 24hrs by FACS analysis; type: functional
[35] = tested on: SF-268; assay: Induction of cell cycle arrest in p53 deficient human SF268 cells assessed as accumulation at subG1 phase at 0.1 uM after 24 hrs FACS analysis; type: functional
[36] = tested on: K562; assay: Induction of cell cycle arrest in p53 deficient human K562 cells assessed as accumulation at subG1 phase at 0.1 uM after 24hrs by FACS analysis; type: functional
[37] = tested on: HeLa; assay: Induction of cell cycle arrest in p53 deficient human HeLa cells assessed as assessed as accumulation at subG1 phase at 0.1 uM after 24hrs by FACS analysis; type: functional
[38] = tested on: SW480; assay: Induction of cell cycle arrest in p53 deficient human SW480 cells assessed as accumulation at subG1 phase at 0.1 uM after 24hrs by FACS analysis; type: functional
[39] = tested on: COLO 205; assay: Induction of cell cycle arrest in p53 deficient human COLO205 cells assessed as accumulation at subG1 phase at 0.1 uM after 24hrs by FACS analysis; type: functional
[40] = Induction of cell cycle arrest in p53 deficient human HCT116-E6 cells assessed as accumulation at subG1 phase at 0.1 uM after 24hrs by FACS analysis; type: functional
[41] = tested on: Jurkat; assay: Induction of cell cycle arrest in p53 deficient human Jurkat cells assessed as accumulation at subG1 phase at 0.1 uM after 24hrs by FACS analysis; type: functional
[42] = Induction of cell cycle arrest in p53 deficient human A2780/E6 cells as accumulation at subG1 phase at 0.1 uM after 24hrs by FACS analysis; type: functional
[43] = tested on: OVCAR-8; assay: Induction of cell cycle arrest in p53 deficient human OVCAR8 cells assessed as accumulation at subG1 phase at 0.1 uM after 24hrs by FACS analysis; type: functional
[44] = tested on: MCF7; assay: Induction of cell cycle arrest in human MCF7 cells expressing p53 gene assessed as accumulation at subG1 phase at 0.1 uM after 24hrs by FACS analysis; type: functional
[45] = tested on: HCT-116; assay: Induction of cell cycle arrest in human HCT116 cells expressing p53 gene assessed as accumulation at subG1 phase at 0.1 uM after 24hrs by FACS analysis; type: functional
[46] = tested on: HCT-15; assay: Induction of cell cycle arrest in human HCT15 cells expressing p53 gene assessed as accumulation at subG1 phase at 0.1 uM after 24hrs by FACS analysis; type: functional
[47] = tested on: SF-539; assay: Induction of cell cycle arrest in human SF539 cells expressing p53 gene assessed as accumulation at subG1 phase at 0.1 uM after 24hrs by FACS analysis; type: functional
[48] = tested on: U2OS; assay: Induction of cell cycle arrest in human U2OS cells expressing p53 gene assessed as accumulation at subG1 phase at 0.1 uM after 24hrs by FACS analysis; type: functional
[49] = tested on: A2780; assay: Induction of cell cycle arrest in human A2780 cells expressing p53 gene assessed as accumulation at subG1 phase at 0.1 uM after 24hrs by FACS analysis; type: functional
[50] = tested on: PC-3; assay: Induction of cell cycle arrest in human PC3 cells expressing p53 gene assessed as accumulation at subG1 phase at 0.1 uM after 24hrs by FACS analysis; type: functional
[51] = tested on: NHDF; assay: Induction of cell cycle arrest in NHDF expressing p53 gene assessed as accumulation at subG1 phase at 0.1 uM after 24hrs by FACS analysis; type: cell-based; details: human
[52] = tested on: A2780; assay: Induction of apoptosis in human A2780 cells assessed as appearance of Mcl1 protein level after 24 hrs; type: functional, cell-based

SMILES: O=c1[nH]cc(F)c(=O)[nH]1 [FLUOROURACIL]
- Activity [1]: <3%
- Activity [2]: < 3%
- IC50 [3]: 88 µM
- IC50 [4]: > 100 µM
- IC50 [5]: > 100 µM
- IC50 [6]: 26.3 µM
- IC50 [7]: 11.6 µM
- IC50 [8]: 28.9 µM
- IC50 [9]: 87.7 µM
- IC50 [10]: 38.7 µM
- IC50 [11]: 96.4 µM
- IC50 [12]: 26.7 µM
- IC50 [13]: 6.36 µM
- IC50 [14]: 18.2 µM
- IC50 [15]: 50.1 µM
- IC50 [16]: 13.2 µM
- IC50 [17]: 7.21 µM
- IC50 [18]: 13.8 µM
- IC50 [19]: 14.7 µM
- Activity [20]: <3%
- Activity [21]: <3%
- Activity [22]: <3%
- Activity [23]: <3%
- Activity [24]: <3%
- Activity [25]: <3%
- Activity [26]: <3%
- Activity [27]: <3%
- Activity [28]: <3%
- Activity [29]: <3%
- Activity [30]: 10%
- Activity [31]: <3%
- Activity [32]: <3%
- Activity [33]: <3%
- Activity [34]: <3%

SMILES: Nc1ccn([C@@H]2O[C@H](CO)[C@@H](O)C2(F)F)c(=O)n1 [GEMCITABINE]
- Activity [35]: <3%
- Activity [36]: <3%
- Activity [37]: <3%
- Activity [38]: <3%
- Activity [39]: <3%
- Activity [40]: <3%
- Activity [41]: >20%
- Activity [42]: <3%
- Activity [43]: <3%
- Activity [44]: <3%
- Activity [45]: <3%
- Activity [46]: 3%
- Activity [47]: <3%
- Activity [48]: <3%
- Activity [49]: <3%
- Activity [50]: <3%
- Activity [51]: < 3%
- IC50 [3]: 0.0103 µM
- IC50 [4]: 0.746 µM
- IC50 [5]: > 10 µM
- IC50 [6]: 0.0136 µM
- IC50 [7]: 0.0514 µM
- IC50 [8]: 0.896 µM
- IC50 [9]: 0.0453 µM
- IC50 [10]: 0.0026 µM
- IC50 [11]: 0.0026 µM
- IC50 [12]: 0.0803 µM
- IC50 [13]: 0.0097 µM
- IC50 [14]: 0.0099 µM
- IC50 [15]: 0.0198 µM
- IC50 [16]: 0.0907 µM
- IC50 [17]: 0.0166 µM
- IC50 [18]: 0.0026 µM
- IC50 [19]: 0.0221 µM

SMILES: CN1CC[C@H](c2c(O)cc(O)c3c(=O)cc(-c4ccccc4Cl)oc23)[C@H](O)C1
- inhibition [52]: Active
